Literature values as cited in patent US5480779A (priority 1988, dated 1996).

Target: peptidyl-prolyl cis-trans-isomerase (Sus scrofa, UniProt P62936)
Sequence (P62936 whole entry): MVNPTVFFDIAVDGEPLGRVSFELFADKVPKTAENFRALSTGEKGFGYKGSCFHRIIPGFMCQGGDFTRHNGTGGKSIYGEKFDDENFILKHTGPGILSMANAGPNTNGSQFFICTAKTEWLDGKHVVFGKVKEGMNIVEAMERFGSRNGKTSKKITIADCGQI

Compound | inactivation / inhibition of the enzyme
O=C(O)c1cc[c]([Hg][Cl])cc1 [p-chloromercuribenzoate] | strongly inactivated
CCCCCCCCCCCCOS(=O)(=O)[O-].[Na+] [sodium dodecylsulfate] | strongly inactivated
chloroiosylamidophenylbutane | not inhibited
